From patent publication US20230340061A1, “PEPTIDES AND METHODS FOR THE TREATMENT OF MULTIPLE SCLEROSIS” (IMCYSE SA, priority 2020, published 2023) come the findings set out here.

In test [1] the test system is autologous LCL. The experiment in a line: Cytolytic activity: apoptosis of autologous LCL (Annexin V). In kind it is cell-based, human. Particulars: peptide-loaded labelled autologous LCL co-cultured with P4-specific CD4+ T cell lines from patients MS017 (S7), MS026 (S12), MS028 (S11) and MS029 (S9). How it is done: (§1) CD14+ monocytes were isolated from these PBMCs by performing positive immunomagnetic separation with CD14 microbeads (Miltenyi Biotec, 130-050-201) according to the supplier recommendations. CD14+ monocytes were cultured for six days and maturated to generate autologous dendritic cells (mDC). CD19+ B cells were isolated from the CD14- PBMCs fraction by performing positive immunomagnetic separation with CD19 microbeads (Miltenyi Biotec, 130-050-301) according to the supplier recommendations. CD19+ B cells were cultured and immortalized with EBV to generate autologous lymphoblastoid cell lines (LCL).
The cytolytic activity of the antigen specific CD4+ T cells was evaluated by quantifying the apoptosis induced on LCL used as antigen presenting cells. Fluorescently labelled autologous LCL, loaded or not with the peptide (P4), were overnight co-cultured at resting state with specific CD4+ T cells, and LCL apoptosis was quantified by flow cytometry through Annexin V staining. Considering the apoptosis percentage of unloaded LCL, used as control, the percentage of specific apoptosis was calculated as follows

In test [2] the test system is CD4+ T cells of patients with multiple sclerosis. Nature of the test: Generation of antigen specific CD4+ T cells, CD154 (CD40L) expression by flow cytometry. In kind it is cell-based, human. To be noted: P4-specific CD4+ cell lines of patients MS024 (S20), MS017 (S9), MS026 (S13), MS028 (S11) and MS029 (S9), overnight co-culture. How it is done:
PBMCs were isolated from blood samples of patients with multiple sclerosis treated by dimethyl fumarate (DMF) on Lymphoprep density gradients.
as §1
(§2) Naïve CD4+ T cells were also purified from the CD14- PBMCs fraction by performing negative immunomagnetic separation with naïve CD4+ T cell isolation kit (Miltenyi Biotec, 130-094-131) according to the supplier recommendations. Naïve CD4+ T cells were co-cultured with autologous mDC or LCL in the presence of P2 and P4 peptides. The CD4+ T cells were re-stimulated periodically, about every 10-12 days.
The ability of the peptides to generate antigen specific CD4+ T cells was evaluated by flow cytometry analysis of the TCR induced surface activation marker CD154 (CD40L) expression after overnight co-culture at resting state with autologous LCL without (no peptide) or with the peptides (P2 or P4). The surface expression of the lytic marker Fas ligand (CD178) was also evaluated by flow cytometry analysis after overnight co-culture at resting state with autologous LCL without (no peptide) or with the peptide (P4).
In general terms: A flow cytometer gives signals particle by particle.

Test [3] shares this test system. Nature of the test: Cytokine secretion in CD4+ T cell culture supernatants (LEGENDplex Human Th Panel). Format: cell-based. Particulars: culture supernatant of MS017 (S12) and MS024 (S20) CD4+ cell lines; P4 vs S-WT epitope peptide.
From the text: as §2
The ability of the peptides to induce cytokines secretion in CD4+ T cells culture supernatants was evaluated by flow cytometry analysis after overnight co-culture at resting state with autologous mDC without (no peptide) or with the peptides (P2 or P4). Supernatants were analyzed with the LEGENDplex Human Th Panel (13-plex) (BioLegend, 740721) according to the supplier recommendations.

The nature of test [4]: Oxidoreductase activity, fluorescent assay with FITC labelled peptides. Format: biochemical. Particulars: reduction of self-quenched FITC labelled peptides, fluorescence. An excerpt: The peptides of the invention comprise an MHC class II T-cell epitope or NKT cell epitope of MOG with a potential to trigger an immune reaction, and a modified oxidoreductase motif. The reducing activity of the motif sequence in the peptide can be assayed for its ability to reduce a sulfhydryl group such as in the insulin solubility assay wherein the solubility of insulin is altered upon reduction, or with a fluorescence-labelled substrate such as insulin. An example of such assay uses a fluorescent peptide and is described in Tomazzolli et al. (2006) Anal. Biochem. 350, 105-112. Two peptides with a FITC label become self-quenching when they covalently attached to each other via a disulfide bridge. Upon reduction by a peptide in accordance with the present invention, the reduced individual peptides become fluorescent again.
The oxidoreductase activity of the immunogenic peptides is determined using a fluorescent assay described in Tomazzolli et al. (2006) Anal. Biochem. 350, 105-112. Two peptides with a FITC label become self-quenching when they form a covalent disulfide bond. Upon reduction by a peptide in accordance with the present invention, the reduced individual FITC labelled peptides emit fluorescence again. The activity is expressed as the mean of duplicates. The results are expressed in Relative Fluorescent Units (RFU). […]

Test [5] deals with T1, soluble HLA-DRB1*03:01 human MHC II protein (human).
T1 construct: Soluble protein purchased from the Benaroya Research Institute; also called HLA-DR3; DR3
Nature of the test: soluble-phase competition vs biotin-tagged control peptide, Eu3+-streptavidin fluorescence (FIG. 2). How it is done:
(§3) To test the binding of the immunogenic peptides to MHCII molecules, a soluble phase competition assay is performed. […] As binding approaches its equilibrium (18h), biotin-labelled peptide/MHC II complexes are captured, separated from unbound reagents, and quantitatively detected by time-resolved fluorescence (Eu³⁺ streptavidin, Perkin Elmer, Brussels, Belgium). […] Data are processed and plotted to ascertain dose-dependent binding properties of test peptides. All the tests are performed in triplicates.

For test [6], the target named is T2, soluble HLA-DRB1*04:01 human MHC II protein (human).
T2 construct: Soluble protein purchased from the Benaroya Research Institute; also called HLA-DR4; DR4
The experiment in a line: soluble-phase competition vs biotin-tagged control peptide, Eu3+-streptavidin fluorescence (FIG. 3). How it is done: as §3

Consider “KLHRTFDPHFLRVPSWKITLFK [short S-WT, reference compound]”, for which the “percentage of specific LCL apoptosis” value in test [1] is “increase”. In addition, in test [2], the “specific induction of effector cells (CD3+CD4+CD154+)” value is recorded as “specific induction”. In test [3], the “specific secretion of cytokine (IL-5)” value is “specific secretion”.

Consider HCHGCVRYFLRVPCWKI [P6], for which, in test [4], the oxidoreductase activity entry is reported as “displayed oxidoreductase activity”.

HCPYCVRYFLRVPCWKITLF (Synthetic) [P3 peptide HCPYCVRYFLRVPCWKITLF]: the binding result in test [5] and in test [6] was “binds” each time.
